Source: patent US10646427B2, “Cosmetic compositions comprising spiculisporic acid and an ester of fatty acid and(poly)glycerol optionally polyoxyalkylenated” (L'OREAL, priority 2013, dated 2020)

System: reconstructed Episkin J13 skin model
Assay: Episkin Peeling test (detachment of corneocytes measured by dosage of proteins)
Format: cell-based
Settings: for desquamating efficacy (detachment of corneocytes) compared to 30% glycolic acid reference: 10 min treatment
Procedure: The Episkin Peeling test measures the detachment of corneocytes of the reconstructed Episkin J13 skin model. At this stage of maturation, the epidermis has a well differentiated stratum corneum (SC).
The sample is treated for 10 minutes with the control or test solution. The sample is taken and placed on the wall of a tube; its surface is then washed with a swab. The washing solution is filtered to preserve only the detached corneocytes. Their presence is measured by a dosage of proteins with the BCA Kit (PIERCE no. 23225).
The reference molecule is glycolic acid (AG). This is one of the compounds used in peeling at rates of occasionally up to 70%. It is applied for short times on the order of a few minutes and then neutralised.
The rate of 30% was used because it allows for good response dynamics with a short application time of 10 min.
Three Episkin batches are used for each study (n=3 per batch and per condition).
The evaluation of the raw materials (MP) is carried out by comparing the results of the MP to those obtained with 30% AG. The MP is effective if it reaches the level of the reference.
They were immersed in water. Spiculisporic acid was salified with potassium (KOH).
The dosage of free proteins, measured by DO, is to proportional to the quantity of corneocytes extracted, and thus to desquamation.

Compound: CCCCCCCCCCC(C(=O)O)C1(C(=O)O)CCC(=O)O1 (stereo not shown) [Spiculisporic acid K+, 4,5-dicarboxy-4-pentadecanolide]
- desquamating efficacy (detachment of corneocytes) compared to 30% glycolic acid reference (1% in water, salified with KOH): no effect on the detachment of corneocytes
- desquamating efficacy (detachment of corneocytes) compared to 30% glycolic acid reference (1% in water, salified with KOH, listed as spiculisporic acid): absence of desquamation

Compound: O=C(O)CO [AG, glycolic acid, reference compound]
- detachment of corneocytes measured by dosage of proteins (FIG. 1) (10%, 30% and 50%): dose-dependent effect

Compound: CCCCCCCC(=O)OCC(O)CO (stereo not shown) [GMCY, Glyceryl caprylate]
- desquamating efficacy (detachment of corneocytes) compared to 30% glycolic acid reference (5% in water): desquamating efficacy (almost) reaching that of the glycolic acid reference at 30%
- desquamating efficacy (detachment of corneocytes) compared to 30% glycolic acid reference (5% in water, listed as glyceryl caprylate): positive, but not significant, desquamation relative to the positive control

Compound: O=C(O)CC(O)(CC(=O)O)C(=O)O [citric acid, Citric acid, reference compound]
- desquamating efficacy (detachment of corneocytes) compared to 30% glycolic acid reference (10% in water): does not reach the effect of the reference
- desquamating efficacy (detachment of corneocytes) compared to 30% glycolic acid reference (30% in water): reaches the efficacy level of the reference
